Results published in US6630501B1, “Phosphinic pseudo-peptides that may be used as matrix zinc metalloprotease inhibitors” (Commissariat a l'energie Atomique, priority 1999, dated 2003).

Assays:
[1] = biological target: T1, MMP-11 (stromelysin-3, mST3) (Mus musculus, UniProt Q02853); assay: Ki determination with fluorogenic synthetic substrates, recombinant MMP-11; assay type: biochemical, murine; details: for Ki: Tris/50 mM HCl buffer, pH 6.8, 10 mM CaCl2, 25° C., read-out: affinity constant Ki, MMP-11 mST3
T1 construct: made in house; host or cells: E. coli
T1 sequence (Q02853 102-492): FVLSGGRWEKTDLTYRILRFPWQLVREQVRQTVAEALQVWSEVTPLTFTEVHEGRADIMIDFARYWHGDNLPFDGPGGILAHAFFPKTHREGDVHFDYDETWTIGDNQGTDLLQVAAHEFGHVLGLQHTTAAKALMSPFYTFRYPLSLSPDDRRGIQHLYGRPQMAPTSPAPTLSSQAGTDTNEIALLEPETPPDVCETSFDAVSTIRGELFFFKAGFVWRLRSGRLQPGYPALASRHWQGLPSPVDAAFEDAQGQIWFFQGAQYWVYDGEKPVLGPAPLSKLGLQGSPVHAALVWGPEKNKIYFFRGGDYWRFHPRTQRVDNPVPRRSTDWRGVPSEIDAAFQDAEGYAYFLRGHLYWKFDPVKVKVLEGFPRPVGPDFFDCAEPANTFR
Experimental: (§1) The MMPs used were produced in recombinant form, in an E. coli expression system, and then purified using different types of chromatographies. Apart from stromelysin-3 (MMP-11), the MMPs produces correspond to human sequences. The Stromelysin-3 used in this study corresponds to the murine form.
(§2) The activity of each MMP was determined using two fluorogenic synthetic substrates. The cutoff of said substrates, which generates a fluorescent signal proportional to the quantity of split substrate, enables a precise determination of the kinetic parameters. The affinity constants Ki were calculated using the equation of Horowitz et al, Proc. Natl. Acad. Sci. USA, 1987, 84, p. 6654-6658 [14], accounting for the dependency of the percentage of inhibition measured experimentally according to the concentration of inhibitor, as a function of the enzyme and substrate concentration.
(§3) The experiments for conducted in a Tris/50 mM HCl buffer, pH 6.8, 10 mM CaCl2, 25° C.

MMP-2 (Gel-A) = biological target: T2, MMP-2 (Gel-A) (Homo sapiens, UniProt P08253); assay: Ki determination with fluorogenic synthetic substrates, recombinant MMP-2; assay type: biochemical; details: for Ki: Tris/50 mM HCl buffer, pH 6.8, 10 mM CaCl2, 25° C., read-out: affinity constant Ki, MMP-2 Gel-A; for inhibition at 2000 µM: read-out: percentage of inhibition, MMP-2
T2 construct: made in house; host or cells: E. coli
T2 sequence (P08253 110-660): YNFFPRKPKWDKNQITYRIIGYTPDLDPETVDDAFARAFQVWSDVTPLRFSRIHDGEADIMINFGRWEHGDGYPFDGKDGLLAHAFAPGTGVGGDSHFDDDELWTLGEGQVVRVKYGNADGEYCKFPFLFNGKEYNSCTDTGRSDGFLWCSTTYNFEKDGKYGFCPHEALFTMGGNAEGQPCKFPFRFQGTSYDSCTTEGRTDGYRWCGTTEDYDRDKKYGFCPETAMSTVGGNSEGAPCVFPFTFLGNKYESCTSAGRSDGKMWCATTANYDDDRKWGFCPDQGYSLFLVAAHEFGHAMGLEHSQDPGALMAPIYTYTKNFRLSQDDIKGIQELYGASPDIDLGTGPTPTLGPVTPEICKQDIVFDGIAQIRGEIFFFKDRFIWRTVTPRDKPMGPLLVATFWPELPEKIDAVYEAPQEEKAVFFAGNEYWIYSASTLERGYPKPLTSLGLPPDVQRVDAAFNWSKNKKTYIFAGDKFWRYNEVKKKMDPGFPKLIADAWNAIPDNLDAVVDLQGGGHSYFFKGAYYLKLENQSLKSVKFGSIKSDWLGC
Experimental: as §1, §2, §3

MMP-9 (Gel-B) = biological target: T3, MMP-9 (Gel-B) (Homo sapiens, UniProt P14780); assay: Ki determination with fluorogenic synthetic substrates, recombinant MMP-9; assay type: biochemical; details: for Ki: Tris/50 mM HCl buffer, pH 6.8, 10 mM CaCl2, 25° C., read-out: affinity constant Ki, MMP-9 Gel-B; for inhibition at 2000 µM: read-out: percentage of inhibition, MMP-9
T3 construct: made in house; host or cells: E. coli
T3 sequence (P14780 94-707): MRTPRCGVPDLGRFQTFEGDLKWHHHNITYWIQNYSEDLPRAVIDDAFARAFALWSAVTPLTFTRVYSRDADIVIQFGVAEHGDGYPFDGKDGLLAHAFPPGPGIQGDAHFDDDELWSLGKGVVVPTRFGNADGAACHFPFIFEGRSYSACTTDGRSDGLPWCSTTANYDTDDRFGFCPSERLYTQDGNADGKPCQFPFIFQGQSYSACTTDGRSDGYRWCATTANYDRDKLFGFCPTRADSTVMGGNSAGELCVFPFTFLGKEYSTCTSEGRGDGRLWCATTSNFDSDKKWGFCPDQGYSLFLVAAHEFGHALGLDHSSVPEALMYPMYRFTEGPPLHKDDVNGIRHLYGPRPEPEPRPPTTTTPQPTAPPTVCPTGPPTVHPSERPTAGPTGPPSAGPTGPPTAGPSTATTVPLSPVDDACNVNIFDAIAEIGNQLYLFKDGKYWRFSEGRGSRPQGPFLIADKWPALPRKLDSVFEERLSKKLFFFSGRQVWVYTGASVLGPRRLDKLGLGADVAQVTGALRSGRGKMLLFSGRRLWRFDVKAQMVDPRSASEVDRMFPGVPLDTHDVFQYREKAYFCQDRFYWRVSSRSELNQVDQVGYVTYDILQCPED
Experimental: as §1, §2, §3

MMP-14 (MT1-MMP) = biological target: T4, MMP-14 (MT1-MMP) (Homo sapiens, UniProt P50281); assay: Ki determination with fluorogenic synthetic substrates, recombinant MMP-14; assay type: biochemical; details: for Ki: Tris/50 mM HCl buffer, pH 6.8, 10 mM CaCl2, 25° C., read-out: affinity constant Ki, MMP-14 MT1-MMP
T4 construct: made in house; host or cells: E. coli
Experimental: as §1, §2, §3

MMP-1 (HFC) = biological target: T5, MMP-1 (HFC) (Homo sapiens, UniProt P03956); assay: Ki determination with fluorogenic synthetic substrates, recombinant MMP-1; assay type: biochemical; details: for inhibition at 1 µM: @ 1 μM inhibitor; for inhibition at 1 µM / inhibition at 2000 µM: read-out: percentage of inhibition, MMP-1; for inhibition at 2000 µM: @ 2 mM inhibitor
T5 construct: made in house; host or cells: E. coli
T5 sequence (P03956 100-469): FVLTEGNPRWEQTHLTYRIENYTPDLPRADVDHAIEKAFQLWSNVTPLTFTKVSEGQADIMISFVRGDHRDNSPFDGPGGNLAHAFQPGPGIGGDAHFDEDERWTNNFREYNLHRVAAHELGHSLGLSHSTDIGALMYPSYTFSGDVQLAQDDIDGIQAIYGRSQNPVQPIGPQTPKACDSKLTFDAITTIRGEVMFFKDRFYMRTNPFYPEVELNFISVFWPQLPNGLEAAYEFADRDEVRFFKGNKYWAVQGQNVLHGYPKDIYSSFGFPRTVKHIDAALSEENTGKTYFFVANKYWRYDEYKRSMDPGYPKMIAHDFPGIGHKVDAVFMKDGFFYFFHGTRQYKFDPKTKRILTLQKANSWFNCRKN
Experimental: as §1, §2, §3

MMP-7 (Matrilysin) = biological target: T6, MMP-7 (Matrilysin) (Homo sapiens, UniProt P09237); assay: Ki determination with fluorogenic synthetic substrates, recombinant MMP-7; assay type: biochemical; details: for inhibition at 1 µM: @ 1 μM inhibitor, read-out: percentage of inhibition, MMP-7
T6 construct: made in house; host or cells: E. coli
T6 sequence (P09237 95-267): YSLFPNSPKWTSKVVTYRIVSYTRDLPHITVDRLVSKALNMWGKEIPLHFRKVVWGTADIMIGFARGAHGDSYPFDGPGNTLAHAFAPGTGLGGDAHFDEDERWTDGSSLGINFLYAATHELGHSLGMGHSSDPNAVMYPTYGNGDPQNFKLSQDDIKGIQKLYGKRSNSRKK
Experimental: as §1, §2, §3

MMP-8 (HNC) = biological target: T7, MMP-8 (HNC) (Homo sapiens, UniProt P22894); assay: Ki determination with fluorogenic synthetic substrates, recombinant MMP-8; assay type: biochemical; details: for Ki: Tris/50 mM HCl buffer, pH 6.8, 10 mM CaCl2, 25° C., read-out: affinity constant Ki, MMP-8 HNC
T7 construct: made in house; host or cells: E. coli
T7 sequence (P22894 101-467): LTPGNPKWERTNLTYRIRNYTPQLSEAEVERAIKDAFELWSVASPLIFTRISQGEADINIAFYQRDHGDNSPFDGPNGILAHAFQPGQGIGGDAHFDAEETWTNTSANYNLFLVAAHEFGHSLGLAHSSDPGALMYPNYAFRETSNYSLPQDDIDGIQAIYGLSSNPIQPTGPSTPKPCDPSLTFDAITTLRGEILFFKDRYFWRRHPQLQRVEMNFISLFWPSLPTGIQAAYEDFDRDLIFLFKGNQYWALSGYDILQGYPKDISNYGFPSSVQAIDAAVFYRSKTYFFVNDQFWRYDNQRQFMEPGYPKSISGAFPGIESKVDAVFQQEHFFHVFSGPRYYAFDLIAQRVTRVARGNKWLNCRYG
Experimental: as §1, §2, §3

| Ki [1] | Ki (MMP-2 (Gel-A)) | Ki (MMP-9 (Gel-B)) | Ki (MMP-14 (MT1-MMP)) | Ki (MMP-8 (HNC)) | inhibition at 2000 µM (MMP-1 (HFC)) | also measured | Structure (SMILES) |
| --- | --- | --- | --- | --- | --- | --- | --- |
|  |  |  |  |  |  | percentage of inhibition, MMP-11 ([1]; @ 1 mM inhibitor): 1% @ 1 mM; percentage of inhibition, MMP-2 (MMP-2 (Gel-A); @ 2 mM inhibitor): 6% @ 2 mM; percentage of inhibition, MMP-9 (MMP-9 (Gel-B); @ 2 mM inhibitor): 14% @ 2 mM; percentage of inhibition, MMP-14 (MMP-14 (MT1-MMP); @ 10 mM inhibitor): 10% @ 10 mM; percentage of inhibition, MMP-1 (MMP-1 (HFC); @ 10 mM inhibitor): 3% @ 10 mM; percentage of inhibition, MMP-7 (MMP-7 (Matrilysin); @ 50 mM inhibitor): 18% @ 50 mM; percentage of inhibition, MMP-8 (MMP-8 (HNC); @ 1 mM inhibitor): 2% @ 1 mM | NC(=O)[C@@H](Cc1c[nH]c2ccccc12)NC(=O)C(CCCc1ccccc1)CP(=O)(O)C(Cc1ccccc1)NC(=O)OCc1ccccc1 (stereo partly shown) [Compound 23] |
| 3.8 nM | 9 nM | 6 nM | 45 nM | 4 nM |  | inhibition at 1 µM (MMP-1 (HFC)): 63%; inhibition at 1 µM (MMP-7 (Matrilysin)): 25% | NC(=O)C(Cc1c[nH]c2ccccc12)NC(=O)C(CCCc1ccccc1)CP(=O)(O)C(Cc1ccccc1)NC(=O)CNc1cccc(Cl)c1 (stereo not shown) [Compound 28] |
| 350 nM | 250 nM | 280 nM | 2030 nM | 240 nM | 24% |  | CC(NC(=O)OCc1ccccc1)P(=O)(O)CC(Cc1ccccc1)C(=O)NC(Cc1c[nH]c2ccccc12)C(N)=O (stereo not shown) [Compound 7] |
| 36 nM | 14 nM | 6 nM | 26 nM |  | 45% |  | CC(NC(=O)OCc1ccccc1)P(=O)(O)CC(CSCc1ccccc1)C(=O)NC(Cc1c[nH]c2ccccc12)C(N)=O (stereo not shown) [Compound 11] |
| 175 nM | 250 nM | 44 nM | 550 nM | 19 nM | 15% |  | CC(NC(=O)OCc1ccccc1)P(=O)(O)CC(COCc1ccccc1)C(=O)NC(Cc1c[nH]c2ccccc12)C(N)=O (stereo not shown) [Compound 10] |
| 8 nM | 11 nM | 10 nM | 41 nM | 5.5 nM |  | inhibition at 1 µM (MMP-1 (HFC)): 24%; inhibition at 1 µM (MMP-7 (Matrilysin)): 18% | CC(NC(=O)OCc1ccccc1)C(=O)NC(Cc1ccccc1)P(=O)(O)CC(CCCc1ccccc1)C(=O)NC(Cc1c[nH]c2ccccc12)C(N)=O (stereo not shown) [Compound 34] |
| 2670 nM |  |  |  |  | 20% | inhibition at 2000 µM (MMP-2 (Gel-A); @ 2 mM inhibitor): 0%; inhibition at 2000 µM (MMP-9 (Gel-B); @ 2 mM inhibitor): 0%; inhibition at 10000 µM (MMP-14 (MT1-MMP); @ 10 mM inhibitor, read-out: percentage of inhibition, MMP-14): 0%; inhibition at 1000 µM (MMP-8 (HNC); @ 1 mM inhibitor, read-out: percentage of inhibition, MMP-8): 9% | CC(CP(=O)(O)C(Cc1ccccc1)NC(=O)OCc1ccccc1)C(=O)NC(Cc1c[nH]c2ccccc12)C(N)=O (stereo not shown) [Compound 12] |
| 51 nM | 80 nM | 60 nM | 270 nM | 20 nM | 23% |  | CC(NC(=O)OCc1ccccc1)P(=O)(O)CC(CCc1ccccc1)C(=O)NC(Cc1c[nH]c2ccccc12)C(N)=O (stereo not shown) [Compound 8] |
|  |  |  | 2960 nM | 240 nM | 9% | inhibition at 1000 µM ([1]; @ 1 mM inhibitor, read-out: percentage of inhibition, MMP-11): 20%; inhibition at 2000 µM (MMP-2 (Gel-A); @ 2 mM inhibitor): 31%; inhibition at 2000 µM (MMP-9 (Gel-B); @ 2 mM inhibitor): 45% | CC(NC(=O)C(CCCc1ccccc1)CP(=O)(O)C(Cc1ccccc1)NC(=O)OCc1ccccc1)C(N)=O (stereo not shown) [Compound 22] |
| 100 nM | 31 nM | 23 nM | 92 nM | 8 nM | 30% | factor by which activity on MMP-8 is multiplied when R3 changes from benzyl to phenylpropyl (MMP-8 (HNC); compound 9 in relation to compound 7): 30 | CC(NC(=O)OCc1ccccc1)P(=O)(O)CC(CCCc1ccccc1)C(=O)NC(Cc1c[nH]c2ccccc12)C(N)=O (stereo not shown) [Compound 9] |
| 1.5 nM | 10 nM | 8 nM | 41 nM |  |  | inhibition at 1 µM (MMP-1 (HFC)): 87%; Ki (MMP-7 (Matrilysin); Tris/50 mM HCl buffer, pH 6.8, 10 mM CaCl2, 25° C., read-out: affinity constant Ki, MMP-7 Matrilysin): 605 nM | NC(=O)C(Cc1c[nH]c2ccccc12)NC(=O)C(CCCc1ccccc1)CP(=O)(O)C(Cc1ccccc1)NC(=O)c1cc2ccccc2[nH]1 (stereo not shown) [Compound 30] |
| 16 nM | 85 nM | 55 nM | 545 nM | 20 nM | 9% |  | NC(=O)C(Cc1c[nH]c2ccccc12)NC(=O)C(COCc1ccccc1)CP(=O)(O)C(Cc1ccccc1)NC(=O)OCc1ccccc1 (stereo not shown) [Compound 17] |
| 8.8 nM | 275 nM | 110 nM | 660 nM | 45 nM | 10% | inhibitory power on MMP-11, in words [1]: very powerful | NC(=O)C(Cc1c[nH]c2ccccc12)NC(=O)C(CCc1ccccc1)CP(=O)(O)C(Cc1ccccc1)NC(=O)OCc1ccccc1 (stereo not shown) [Compound 14] |
| 5 nM | 20 nM | 10 nM | 105 nM | 2.5 nM | 23% |  | NC(=O)[C@H](Cc1c[nH]c2ccccc12)NC(=O)C(CCCc1ccccc1)CP(=O)(O)C(Cc1ccccc1)NC(=O)OCc1ccccc1 (mixture of isomers) [Compound 15, ZPheΨ(PO2CpH2)pPheTrpNH2] |
